Source: patent publication US10105437B2, “Epitopes related to coeliac disease” (BTG International Limited, priority 2004, dated 2018)

System: PBMC from HLA-DQ2+ coeliac subjects
Test: Interferon gamma ELISPOT, second round wheat gliadin and glutenin 16mer library
Type: cell-based, human
Conditions: 16mers pre-treated with transglutaminase, 18 or 28 subjects; for subjects with >70% of maximal peptide-specific response: normalized to individual's maximal response
Excerpt: 12mer peptides were then identified in which each potential deamidation site could be in position 4, 6 or 7 in the 9mer located within HLA-DQ2 binding groove (HLA-DQ2 anchors at these positions show a preference for glutamate). Candidate 12mer core epitope sequences were then flanked with glycine followed by the N-terminal residue present in the parent gliadin polypeptide and at the C-terminal by the C-terminal residue present in the parent gliadin polypeptide followed by glycine (i.e. GXXXXXXXQXXXXXXG (SEQ ID NO: 1936)). […]
IFNγ ELISpot assays (Mabtech, Sweden) were performed in 96-well plates (MAIP S-45, Millipore) in which each well contained 25 mcl of peptide solution and 100 mcl of PBMC (2-8×10^5/well) in RPMI containing 10% heat inactivated human AB serum. After development and drying, IFNγ ELISpot plates were assessed using the MAIP automated ELISpot plate counter. Data was then analysed according to a novel algorithm (Expectation Maximization: EM) to define and quantify interferon-gamma responses to 9mer sequences contained within the peptide library (see FIG. 3 and below). 9mer peptides were then rationalised according to an algorithm that assumes redundancy in T-cell recognition, the “IterativeCluster” algorithm (see FIG. 4 and below), by allowing groups of amino acids with similar chemical properties at any one position in the 9mer, or for glutamate to replace glutamine at any position (assuming deamidation may have occurred).
All 2nd round 16mer peptides were assessed in at least 18 subjects. […] All 16mers identified for the second round Oxford library also fulfilled the selection criteria for the Melbourne second round library.
The second round peptide library data was analysed according to the “dominance” of peptide responses in the interferon gamma ELISPOT in individual subjects i.e. the percent response of an individual's PBMC to a specific peptide normalized against that individual's maximal peptide-induced response. Sequences of peptides that stimulated at least 40% of the maximal peptide-specific response in at least one subject are shown in Table 1 below. The dataset supports the consistency and “dominance” of peptides conforming to the sequences identified using the first round 20mer peptide library using the Expectation Maximization (EM) algorithm described above.

In the case of “G-QQPFPQPQQPFPWQ-G: wheat 16mer, second round library”, the “subjects with 10-40% of maximal peptide-specific response” value is reported as 5/28, the “subjects with 40-70% of maximal peptide-specific response” value is reported as 8/28 and the “subjects with <10% of maximal peptide-specific response” value is reported as 6/28. The “subjects with >70% of maximal peptide-specific response” value was 9/28.
“IIMQQEQQEQRQGVQI [wheat 16mer, second round library]” was tested, and the “subjects with 10-40% of maximal peptide-specific response” value was 8/28, the “subjects with 40-70% of maximal peptide-specific response” value was “Nil” and the “subjects with <10% of maximal peptide-specific response” value was 19/28. The “subjects with >70% of maximal peptide-specific response” value was 1/28.
In the case of “G-FPQPQQPQQPFPQQ-G: wheat 16mer, second round library (GFPQPQQPQQSFPQQG; Description of Artificial Sequence: Synthetic gluten peptide)”, the “subjects with 10-40% of maximal peptide-specific response” value is reported as 3/28, the “subjects with 40-70% of maximal peptide-specific response” value is reported as 1/28 and the “subjects with <10% of maximal peptide-specific response” value is reported as 25/28. The “subjects with >70% of maximal peptide-specific response” value was “Nil”.
With “G-LQPFPQPQLPYPQP-G: wheat 16mer, second round library (GLQPFPQPQLPYPQPG; Description of Artificial Sequence: Synthetic gluten peptide)” the “subjects with 10-40% of maximal peptide-specific response” value was “Nil”, the “subjects with 40-70% of maximal peptide-specific response” value was 8/28 and the “subjects with <10% of maximal peptide-specific response” value was 6/28. The “subjects with >70% of maximal peptide-specific response” value was 14/28.
In the case of “LQTLPSMCNVYIPPYC [wheat 16mer, second round library]”, the “subjects with 10-40% of maximal peptide-specific response” value is reported as “Nil”, the “subjects with 40-70% of maximal peptide-specific response” value is reported as “Nil” and the “subjects with <10% of maximal peptide-specific response” value is reported as 17/18. For the same substance, the “subjects with >70% of maximal peptide-specific response” value was “Nil”.
“G-FFPQPQQQFPQPQQ-G: wheat 16mer, second round library (GFPQQPQQQFPQPQQG; Description of Artificial Sequence: Synthetic gluten peptide)” was tested, and the “subjects with 10-40% of maximal peptide-specific response” value was 10/28, the “subjects with 40-70% of maximal peptide-specific response” value was 1/28 and the “subjects with <10% of maximal peptide-specific response” value was 17/28. The “subjects with >70% of maximal peptide-specific response” value was “Nil”.
For “G-LQPFPQPQLPYSQP-G: wheat 16mer, second round library (GLQPFPQPQLPYSQPG; Description of Artificial Sequence: Synthetic gluten peptide)”, the “subjects with 10-40% of maximal peptide-specific response” value was 12/28, the “subjects with 40-70% of maximal peptide-specific response” value was 3/28 and the “subjects with <10% of maximal peptide-specific response” value was 11/28. The “subjects with >70% of maximal peptide-specific response” value was 2/28.
With “G-QQPQQQPQQPFPQQ-G: wheat 16mer, second round library” the “subjects with 10-40% of maximal peptide-specific response” value was 5/28, the “subjects with 40-70% of maximal peptide-specific response” value was 1/28 and the “subjects with <10% of maximal peptide-specific response” value was 22/28. For the same substance, the “subjects with >70% of maximal peptide-specific response” value was “Nil”.
In the case of “G-FPQLQQPQQPFPQQ-G: wheat 16mer, second round library (GFPQTQQPQQPFPQQG; Description of Artificial Sequence: Synthetic gluten peptide)”, the “subjects with 10-40% of maximal peptide-specific response” value is reported as 1/28, the “subjects with 40-70% of maximal peptide-specific response” value is reported as “Nil” and the “subjects with <10% of maximal peptide-specific response” value is reported as 26/28. The “subjects with >70% of maximal peptide-specific response” value was 1/28.
“G-LQPFPQPQLPFPQP-G: wheat 16mer, second round library (GLQPFPQPQLPFPQPG; Description of Artificial Sequence: Synthetic gluten peptide)” was tested, and the “subjects with 10-40% of maximal peptide-specific response” value was 5/28, the “subjects with 40-70% of maximal peptide-specific response” value was 8/28 and the “subjects with <10% of maximal peptide-specific response” value was 10/28. The “subjects with >70% of maximal peptide-specific response” value was 4/28.
In the case of “QGQQGYYPTSPQQPPQ [wheat 16mer, second round library]”, the “subjects with 10-40% of maximal peptide-specific response” value is reported as “Nil”, the “subjects with 40-70% of maximal peptide-specific response” value is reported as 1/18 and the “subjects with <10% of maximal peptide-specific response” value is reported as “Nil”. For the same substance, the “subjects with >70% of maximal peptide-specific response” value was “Nil”.
